Measured values: patent US20150196514A1, “METHOD OF TREATING CARDIOVASCULAR EVENTS USING COLCHICINE CONCURRENTLY WITH AN ANTITHROMBOTIC DRUG” (Murray and Poole Enterprises Limited, priority 2012, published 2015)

Legend:
[1] = system: patients with acute pericarditis; settings: at 18 months, colchicine 1.0 to 2.0 mg first day then 0.5 to 1.0 mg/day for 3 months added to conventional treatment, p=0.004; cited from earlier work
[2] = system: patients with a first episode of recurrent pericarditis; settings: at 18 months, colchicine 1.0-2.0 mg first day then 0.5-1.0 mg/d for 6 months added to conventional treatment; cited from earlier work
[3] = system: patients with clinically stable coronary disease; assay: LoDoCo Trial: colchicine 0.5 mg/day added to standard secondary prevention therapies
Description: To assess the therapeutic effects of an immediate release formulation in patients with cardiovascular disease, a prospective randomized observer blinded end-point trial was conducted to determine whether adding 0.5 mg/day of colchicine to standard secondary prevention therapies including aspirin and high dose statins reduces the risk of cardiovascular events in patients with objectively diagnosed and clinically stable coronary disease.
Eligible consenting patients with established coronary disease presenting for routine clinical review were randomized to receive colchicine 0.5 mg/day or no colchicine without any other change to their medical therapy. All outcomes were evaluated by an experienced adjudicator blinded to the treatment allocation.
It was planned to recruit a study population that would include 500 patients planned (532 patients randomized as 32 dropped out early), 250 randomized to the control group and 250 patients randomized to treatment who were tolerant of colchicine for at least 4 weeks after the date of their randomization. Patients were eligible for inclusion if they met each of the following criteria: 1) angiographically proven coronary disease; 2) aged 35 to 85 years; 3) clinically stable for at least 6 months, 4) no major competing co-morbidities or contra-indication to colchicine therapy, 5) considered to be compliant with therapy and attending routine cardiology follow up appointments, and 6) willing to be consented and randomized into the study. Patients with a history of bypass surgery were only eligible if they had undergone bypass surgery more than 10 years before, or had angiographic evidence of graft failure or had undergone stenting since their bypass surgery. All patients signed informed consent before randomization.
The randomization sequence was computer generated, kept concealed from the investigators at all times and was managed by a research assistant who had no involvement in the evaluation or management of study patients. […] Despite electing to use the lowest dose of colchicine available, it was anticipated that a number of patients would withdraw from therapy early after randomization due to gastrointestinal side effects. In order to ensure that the requisite number of patients in the treatment arm were actually tolerant of treatment, the protocol allowed for the research assistant to assign a newly recruited patient to treatment if a patient discontinued colchicine due to side effects in the first month. Patients who were intolerant to therapy remained in the study, and were followed in the usual manner and included in the primary intention to treat analysis.
The drug was dispensed by their usual chemist, and if requested, patients were reimbursed for the cost of these scripts. All other treatments were continued as usual.
Patient compliance with treatment and outcome data were collected at routine follow up visits and at the time of any unplanned hospital admission. An acute coronary syndrome (ACS) was defined as either (a) Acute Myocardial Infarction (AMI), as evidenced by acute ischemic chest pain associated with a rise in serum troponin above the upper limit of normal or (b) Unstable Angina (UA), as evidenced by a recent acceleration of the patient's angina unassociated with a rise in serum troponin but associated with angiographic evidence of a change in the patient's coronary anatomy. […] The ACS was characterized as being stent-related if there was evidence of significant in-stent stenosis or acute stent thrombosis. Out of Hospital Cardiac Arrest was defined as either a sudden death as evidenced on the patient's death certificate, or a non-fatal out of hospital cardiac arrest, defined as a recovery from sudden collapse associated with documented asystole, ventricular tachycardia or ventricular fibrillation.

[4] = No treatment (no antithrombotic drug), colchicine group 1
[5] = Treated with Aspirin + clopidogrel + warfarin, colchicine group 2
[6] = Treated with Aspirin + clopidogrel, colchicine group 33
[7] = Treated with Aspirin + warfarin, colchicine group 6
[8] = Treated with Aspirin alone, colchicine group 173
[9] = Treated with Clopidogrel alone or warfarin alone (no aspirin), colchicine group 28
[10] = Treated with Clopidogrel alone, colchicine group 12
[11] = Treated with Warfarin alone, colchicine group 16
[12] = Treated with a least one antiplatelet drug (at least aspirin, clopidogrel or combinations thereof), colchicine group 226
[13] = Treated with at least aspirin, colchicine group 214
[14] = Treated with at least one antithrombotic drugs (at least aspirin, clopidogrel or warfarin or combinations thereof), colchicine group 242
[15] = intention to treat, 282 patients

## CC(=O)Oc1ccccc1C(=O)O [aspirin]
[1]
  recurrence rate: 32.3%
[2]
  recurrence rate (actuarial rates): 50.6%

## COc1cc2c(c(OC)c1OC)-c1ccc(OC)c(=O)cc1[C@@H](NC(C)=O)CC2 [colchicine, N[5,6,7,9-tetrahydro-1,2,3,10-tetratmethoxy 9-oxobenzo[a]heptalen-7-yl],(S)-acetamide]
[3]; 282 randomized to treatment
  early intolerance due to gastrointestinal side effects, incidence: 11%
[3]; [4]
  Primary Outcome, number of patients: 0 (0%)
  Primary Outcome, percent: 0 (0%)
[3]; Total*, colchicine group 243
  Primary Outcome, number of patients: 11
  Primary Outcome, percent: 4.5%
[3]; [5]
  Primary Outcome, number of patients: 0 (0%)
  Primary Outcome, percent: 0 (0%)
[3]; [6]
  Primary Outcome, number of patients: 3
  Primary Outcome, percent: 9%
[3]; [7]
  Primary Outcome, number of patients: 0 (0%)
  Primary Outcome, percent: 0 (0%)
[3]; [8]
  Primary Outcome, number of patients: 7
  Primary Outcome, percent: 4%
[3]; [9]
  Primary Outcome, number of patients: 1
  Primary Outcome, percent: 3.45%
[3]; [10]
  Primary Outcome, number of patients: 1
  Primary Outcome, percent: 8.3%
[3]; [11]
  Primary Outcome, number of patients: 0 (0%)
  Primary Outcome, percent: 0 (0%)
[3]; [12]
  Primary Outcome, number of patients: 11
  Primary Outcome, percent: 4.9%
[3]; [13]
  Primary Outcome, number of patients: 10
  Primary Outcome, percent: 4.67%
[3]; [14]
  Primary Outcome, number of patients: 11
  Primary Outcome, percent: 4.5%
[3]; colchicine 0.5 mg/day added to standard therapy in patients with stable coronary disease
  risk of a cardiovascular event, including an ACS, out of hospital cardiac arrest and non-cardio-embolic ischemic stroke: significantly reduces the risk
[3]; colchicine group
  patients who died of non-cardiac causes: 4 patients
[3]; colchicine group, study period
  patients who died: 4 patients
[3]; [15]
  ACS unrelated to stent disease associated with UA, incidence: 1.8%
  ACS unrelated to stent disease associated with an AMI, incidence: 1.4%
  ACS unrelated to stent disease, incidence: 3.2%
  ACS, incidence: 4.6%
[3]; intention to treat, 282 patients assigned to colchicine 0.5 mg/day, median follow up 36 months
  primary outcome, incidence: 5.3%
[3]; intention to treat, colchicine vs control group, 95% CI 0.18-0.59, p<0.001
  primary outcome, hazard ratio: 0.33
[3]; intention to treat, of 282
  ACS unrelated to stent disease associated with UA, patients: 5
  ACS unrelated to stent disease associated with an AMI, patients: 4
  ACS unrelated to stent disease, patients: 9
  patients presenting with an ACS: 13
[3]; intention to treat, of 282 patients assigned to colchicine 0.5 mg/day, median follow up 36 months
  primary outcome (ACS, out of hospital cardiac arrest or non-cardio-embolic ischemic stroke), patients with event: 15 patients
[3]; of 282 randomized to treatment
  early intolerance due to gastrointestinal side effects, patients: 32
[3]; on-treatment vs control, 95% CI 0.15-0.56, p<0.001
  events (primary outcome), hazard ratio: 0.29
[3]; on-treatment: compliant and tolerant to therapy beyond the first month, 243 patients
  events (primary outcome), incidence: 4.5%
[3]; on-treatment: compliant and tolerant to therapy beyond the first month, of 243
  events (primary outcome), patients: 11
[3]; per group
  stent related ACS with evidence of acute stent thrombosis, patients: 2
  stent related ACS with evidence of significant in-stent stenosis, patients: 2
[3]; primary outcome, intention to treat
  number needed to treat: 11
[3]; treatment group vs control, infrequent events
  out of hospital cardiac arrest and non-cardio-embolic ischemic stroke: reduced
[3]; vs control, 95% CI 0.08-0.76, p=0.014
  AMI unrelated to stent disease, hazard ratio: 0.25
[3]; vs control, 95% CI 0.10-0.75, p=0.011
  UA unrelated to stent disease, hazard ratio: 0.27
[3]; vs control, 95% CI 0.12-0.55, p<0.001
  ACS unrelated to stent disease, hazard ratio: 0.26
[3]; vs control, 95% CI 0.18-0.63, p<0.001
  ACS, hazard ratio: 0.33
[1]
  recurrence rate: 10.7%
[2]
  recurrence rate (actuarial rates): 24.0%
